Source: US20140121181A1, “HYDROPHOBIC POLYMER COMPOUND HAVING ANTICOAGULANT EFFECT” (TORY INDUSTRIES, INC., priority 2011, published 2014)

System: citric acid-supplemented blood collected from a volunteer
Assay: Measurement of whole blood coagulation time (Sonoclot, ACT ONSET value)
Set-up: species or system human
Experimental: In a cuvette (Non-activated Clotting Test Kit), 18 μL of physiological saline was placed and 14.8 μL of calcicol was added thereto, followed by further addition of 342 μL of the thus obtained citric acid-supplemented blood. The resulting mixture was measured using a Sonoclot blood coagulation/platelet function analyzer (IMI Co., Ltd.) and the measured ACT ONSET value was defined as the whole blood coagulation time.

**Q.** Which results are given for `CC1CNc2c(cccc2S(=O)(=O)N[C@@H](CCCNC(=N)N)C(=O)N2CC[C@@H](C)C[C@@H]2C(=O)O)C1` (mixture of isomers) [argatroban, (2R,4R)-4-methyl-1-((2S)-2-{[(3RS)-3-methyl-1,2,3,4-tetrahydroquinolin-8-yl]sulfonyl}amino-5-guanidinopentanoyl)piperidine-2-carboxylic acid]?
**A.** whole blood coagulation time (2 μM test solution/dispersion in place of physiological saline): 520 s; whole blood coagulation time (10 μM test solution in place of physiological saline): 734 s; whole blood coagulation time (20 μM test solution in place of physiological saline): 893 s
